Assay results taken from patent US4806604A, “Photosensitive calcium chelators” (Regents of the University of California, priority 1987, dated 1989).
Read-outs that look alike come from different tables or passages of the source.

Key:
[1] = EDTA analogs vs EDTA parent; cited from earlier work
[2] = Tsien, 1980; read-out: Kd (Ca^2+); cited from earlier work
[3] = Ca^2+ affinity (dissociation constant) of the chelators; type: binding; details: for Ca^2+ affinity (rank in words): conformational explanation of Table I
[4] = Mg^2+ affinity (dissociation constant) of the chelators; type: binding
[5] = Ca^2+:Mg^2+ selectivity (rejection of Mg^2+); type: binding; details: 22° C., 0.1M ionic strength
[6] = Release of Ca^2+ after flash photolysis; details: after a submillisecond light flash
[7] = cytosolic free calcium 2+ typical for resting cells; cited from earlier work

O=C(O)CN(CC(=O)O)[C@H]1CCC[C@@H]1N(CC(=O)O)CC(=O)O (relative stereo) [trans-cyclopentanediyl analog]
higher affinity for Ca^2+ than the parent [1]: 3.7 -fold

O=C(O)CN(CC(=O)O)c1ccccc1OCCOc1ccccc1N(CC(=O)O)CC(=O)O [BAPTA, 1,2-bis(2-aminophenoxy)ethane N,N,N'N'-tetraacetic acid]
Kd [2]: 0.1 µM

Cc1ccc(N(CC(=O)O)CC(=O)O)c(O[C@@H]2CCC[C@@H]2Oc2cc(C(=O)c3cc4c(cc3N=O)OCO4)ccc2N(CC(=O)O)CC(=O)O)c1 (relative stereo) [VIII]
Kd ([3]; after photolysis of nitr-7 to the nitrosobenzophenone, read-out: dissociation constant for Ca^2+ upon photolysis): 3 µM

Cc1ccc(N(CC(=O)O)CC(=O)O)c(O[C@@H]2CCC[C@@H]2Oc2ccccc2N(CC(=O)O)CC(=O)O)c1 (relative stereo) [Va]
Kd ([3]; Table I, Chelator V after saponification, before photolysis, read-out: Kd for Ca^2+): 0.02 µM
Ca^2+ affinity (rank in words) [3]: highest Ca^2+ affinities
higher affinity for Ca^2+ than the trans-isomer ([3]; cyclopentanediyl series, cis (Va) vs trans (Vb)): 300 -fold
Kd ([4]; Table I, Chelator V after saponification, read-out: Kd for Mg^2+): 4200 µM

Cc1ccc(N(CC(=O)O)CC(=O)O)c(O[C@H]2CCC[C@H]2Oc2cc(C(O)c3cc4c(cc3[N+](=O)[O-])OCO4)ccc2N(CC(=O)O)CC(=O)O)c1 (relative stereo) [nitr-7, cis-1-(2-bis(carboxymethyl)amino-5-(1-hydroxy-1-(2-nitro-4,5-methylenedioxyphenyl)methyl)phenoxy)-2-(2-bis(carboxymethyl)amino-5-methylphenoxy)cyclopentane]
Rejection of Mg^2+ [5]: > 10^5
Kd ([3]; 22° C., 0.1M ionic strength, before photolysis, read-out: dissociation constant for Ca^2+): 0.053 µM
Ca^2+ affinity (rank in words) [3]: highest Ca^2+ affinities
exponential time constant of Ca^2+ release [6]: 1.8 millisecond
Kd ([4]; 22° C., 0.1M ionic strength, read-out: dissociation constant for Mg^2+): 5700 µM

COC(c1ccc(N(CC(=O)O)CC(=O)O)c(OCCOc2cc(C)ccc2N(CC(=O)O)CC(=O)O)c1)c1cc2c(cc1[N+](=O)[O-])OCO2 (stereo not drawn) [nitr-2]
fraction of unphotolyzed chelator molecules bearing calcium 2+ ions [7]: 1/2

O=C(O)CN(CC(=O)O)[C@@H]1CCCC[C@@H]1N(CC(=O)O)CC(=O)O [cis-cyclohexanediyl analog]
weaker Ca^2+ affinity than the parent [1]: 17 -fold

O=C(O)CN(CC(=O)O)[C@H]1CCCC[C@@H]1N(CC(=O)O)CC(=O)O (relative stereo) [trans-cyclohexanediyl analog]
stronger Ca^2+ affinity than the parent [1]: 324 -fold
